Series [1] deals with T1, Glutamate racemase (Lactobacillus fermentum, UniProt Q03469).
T1 sequence (Q03469 whole entry): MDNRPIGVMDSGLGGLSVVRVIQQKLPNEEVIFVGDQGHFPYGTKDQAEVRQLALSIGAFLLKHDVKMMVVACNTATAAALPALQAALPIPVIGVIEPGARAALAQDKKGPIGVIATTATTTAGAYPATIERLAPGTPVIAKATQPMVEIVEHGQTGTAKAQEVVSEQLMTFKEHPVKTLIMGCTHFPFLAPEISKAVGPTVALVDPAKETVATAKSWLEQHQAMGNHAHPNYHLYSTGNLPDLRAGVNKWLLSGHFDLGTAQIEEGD
The series is described as follows: Inhibition towards glutamate racemase from Lactobacillus fermenti was determined and expressed as KI. Details: species or system Limosilactobacillus fermentum.

Series [2] in a line: Ratio of kcat to that of KM was determined.
A short description of series [3]: Inhibition towards diaminopimelate (DAP) epimerase was determined.
Series [4] addresses T2, Glutamate racemase (Lactobacillus fermentum) (UniProt Q03469).
T2 sequence (whole entry): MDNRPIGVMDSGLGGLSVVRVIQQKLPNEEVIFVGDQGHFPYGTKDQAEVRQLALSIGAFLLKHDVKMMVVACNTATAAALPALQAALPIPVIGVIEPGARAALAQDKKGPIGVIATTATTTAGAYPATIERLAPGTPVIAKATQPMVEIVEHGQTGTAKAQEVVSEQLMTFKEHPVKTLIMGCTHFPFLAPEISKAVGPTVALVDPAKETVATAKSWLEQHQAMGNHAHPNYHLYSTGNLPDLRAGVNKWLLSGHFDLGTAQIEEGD
The series is described as follows: Enzyme kinetic constant for Glutamate racemase and expressed as Kcat.

Series [5] deals with T1, Glutamate racemase. The series is described as follows: Inhibition towards glutamate racemase was determined and expressed as KI. Details: species or system Limosilactobacillus fermentum.
The nature of series [6]: Inhibition towards diaminopimelate (DAP) epimerase was determined and expressed as KI.
Substrate in series [7]: O=C(O)CCC(=O)C(=O)O
The series is described as follows: Enzyme kinetic constant for Glutamate racemase and expressed as Km.

Substrate in series [8]: N[C@H](CCC(=O)O)C(=O)O
The note with it: Limosilactobacillus fermentum.

As a reminder, the Ki is the dissociation constant of the complex between target and ligand, obtained from inhibition or displacement. With `N[C@@H](CCC(=O)O)C(=O)O` [GLUTAMIC ACID], the Ki in series [1] was 28 µM. The k cat/Km in series [2] was determined as 30 M⁻¹ s⁻¹.
By IC50 is commonly meant the concentration at which inhibition is half-maximal. Higher therefore signals a need for much substance. In turn, `N[C@H](C(=O)O)[C@H](F)CC[C@H](N)C(=O)O` came in with a 50% inhibitory concentration (IC50) in series [3] of 10 µM.
As for `O=C(O)CCC(=O)C(=O)O`, the k cat in series [4] turned out to be 0.18 s⁻¹. For the same molecule, in series [2], the k cat/Km was 3200 M⁻¹ s⁻¹.
`N[C@@H](CC[C@H](F)[C@@H](N)C(=O)O)C(=O)O`: the IC50 in series [3] was 8 µM. That is a single-digit micromolar value.
As to `N[C@H](CCC(=O)O)C(=O)O` [D-GLUTAMATE], the Ki in series [5] is 190 µM; in series [1], 56 µM. The k cat/Km in series [2] was determined as 3700 M⁻¹ s⁻¹.
Turning to `N[C@H](C(=O)O)[C@@H](F)CC[C@H](N)C(=O)O`, in series [3], the midpoint of inhibition, the IC50, lay at 4 µM.
In series [6], `NC(CCCC(NO)C(=O)O)C(=O)O` (centres undefined) came in with a Ki of 5.6 µM.
In series [3], `N[C@@H](CC[C@@H](F)[C@@H](N)C(=O)O)C(=O)O` had an IC50 of 25 µM.

B1: Glutamate racemase (Lactobacillus fermentum), Q03469 (protein)
chain: MDNRPIGVMDSGLGGLSVVRVIQQKLPNEEVIFVGDQGHFPYGTKDQAEVRQLALSIGAFLLKHDVKMMVVACNTATAAALPALQAALPIPVIGVIEPGARAALAQDKKGPIGVIATTATTTAGAYPATIERLAPGTPVIAKATQPMVEIVEHGQTGTAKAQEVVSEQLMTFKEHPVKTLIMGCTHFPFLAPEISKAVGPTVALVDPAKETVATAKSWLEQHQAMGNHAHPNYHLYSTGNLPDLRAGVNKWLLSGHFDLGTAQIEEGD
What is called Km is the concentration of substrate that gives half-maximal velocity. In the case of B1, the Km turned out to be 57 µM in series [7] and 300 µM in series [8].

Source of the values: ChEMBL document CHEMBL1150481, “The inhibition of glutamate racemase by” (Bioorg Med Chem Lett, 1997).
